Tests used:
Experiment in all cases: relative viability (nuclei count vs DMSO), 5 days (fraction); higher = more cells survive
[1] = compound: Cc1ccc(Nc2nccc(N(C)c3ccc4c(C)n(C)nc4c3)n2)cc1S(N)(=O)=O [Pazopanib] + CS(=O)(=O)N1CCN(Cc2cc3nc(-c4cccc5[nH]ncc45)nc(N4CCOCC4)c3s2)CC1 [Pictilisib] (partner 1 µM)
Summary of the method: (§1)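 Nuclei were stained with Hoechst during a one-step fixation (final 0.05% Triton X-100, 1% formaldehyde, 1 ug/ml Hoechst) carried out 5 days after dosing, then counted on 4× images. The cells, lung cancer lines in 1536-well plates, had been dosed by pin tool the day after seeding with one drug alone or a fixed anchor-drug dose plus five library-drug doses (not always all listed) in √10 steps. Relative viability is the nuclei count in treated wells divided by that in vehicle wells, and each value is the median of duplicate plates.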

[2] = compound: Cc1ccc(C(=O)Nc2ccc(CN3CCN(C)CC3)c(C(F)(F)F)c2)cc1C#Cc1cnc2cccnn12 [Ponatinib] + Cc1nc(Nc2ncc(C(=O)Nc3c(C)cccc3Cl)s2)cc(N2CCN(CCO)CC2)n1 [Dasatinib] (partner 0.075 µM)
Summary of the method: as §1

[3] = compound: Cc1ccc(Nc2nccc(N(C)c3ccc4c(C)n(C)nc4c3)n2)cc1S(N)(=O)=O [Pazopanib] + O=C(c1cc(Cc2n[nH]c(=O)c3ccccc23)ccc1F)N1CCN(C(=O)C2CC2)CC1 [Olaparib] (partner 8 µM)
Summary of the method: as §1

[4] = compound: Cc1ccc(C(=O)Nc2ccc(CN3CCN(C)CC3)c(C(F)(F)F)c2)cc1C#Cc1cnc2cccnn12 [Ponatinib] + O=C(c1cc(Cc2n[nH]c(=O)c3ccccc23)ccc1F)N1CCN(C(=O)C2CC2)CC1 [Olaparib] (partner 8 µM)
Summary of the method: as §1

## UMC-11
[1]; first compound 0.01 µM
  relative viability: 0.724
[1]; first compound 0.03162 µM
  relative viability: 0.879
[1]; first compound 0.1 µM
  relative viability: 0.787
[1]; first compound 0.3162 µM
  relative viability: 0.928
[1]; first compound 1 µM
  relative viability: 1.13
[2]; first compound 0.002 µM
  relative viability: 0.465
[2]; first compound 0.006325 µM
  relative viability: 0.451
[2]; first compound 0.06325 µM
  relative viability: 0.51
[2]; first compound 0.2 µM
  relative viability: 0.465
[3]; first compound 0.01 µM
  relative viability: 0.425
[3]; first compound 0.03162 µM
  relative viability: 0.359
[3]; first compound 0.1 µM
  relative viability: 0.41
[3]; first compound 0.3162 µM
  relative viability: 0.509
[3]; first compound 1 µM
  relative viability: 0.34
[4]; first compound 0.002 µM
  relative viability: 0.405
[4]; first compound 0.006325 µM
  relative viability: 1.01
[4]; first compound 0.06325 µM
  relative viability: 0.338
[4]; first compound 0.2 µM
  relative viability: 0.366

Reference: the supplement of paper PMC10307832
